Reference: patent US9980943B2, “Methods of treating muscular dystrophy” (BOARD OF REGENTS OF THE NEVADA SYSTEM OF HIGHER EDUCATION, …, priority 2013, dated 2018)

Assays:
Type in all cases: cell-based, mouse
[1] = system: α7 integrin (LacZ reporter in α7βgal+/− myoblasts); test: Myoblast α7+/LacZ integrin FDG assay (Burkin assay in myoblasts, 96-well); conditions: α7+/LacZ myoblasts, 96-well
[2] = system: β-galactosidase in CMV-LacZ C2C12 myotubes; test: CMV-LacZ secondary screen in C2C12 myotubes (β-Gal stabilizing assay); conditions: for CMV-LACZ in Myotubes (β-galactosidase activity relative to DMSO): CMV-LacZ C2C12 myotubes, 96-well format
In short: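 CMV-LacZ C2C12 line (clonal, FDG-screened); myoblasts/myotubes dosed 0.5–40 μM (0.5, 1, 5, 10, 20, 40 μM); n=2 per point; β-gal stabilization read-out.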

[3] = system: α7 integrin (LacZ reporter in α7+/LacZ myotubes); test: Myotube α7 integrin FDG assay (Burkin assay in myotubes, 96-well); conditions: myotubes
[4] = 5 uM, C2C12 CMV-LacZ myotubes, fold relative to DMSO
[5] = 10 uM, C2C12 CMV-LacZ myotubes, fold relative to DMSO
[6] = 20 uM, C2C12 CMV-LacZ myotubes, fold relative to DMSO
[7] = 40 uM, C2C12 CMV-LacZ myotubes, fold relative to DMSO

Row | SMILES | Burkin Assay in Myoblasts, value relative to DMSO ([1]; 0.5 uM) | Burkin Assay in Myoblasts, value relative to DMSO ([1]; 1 uM) | Burkin Assay in Myoblasts, value relative to DMSO ([1]; 5 uM) | Burkin Assay in Myoblasts, value relative to DMSO ([1]; 10 uM) | Burkin Assay in Myoblasts, value relative to DMSO ([1]; 20 uM) | Burkin Assay in Myoblasts, value relative to DMSO ([1]; 40 uM) | CMV-LACZ in Myotubes (β-galactosidase activity relative to DMSO) ([2]; 5 uM) | CMV-LACZ in Myotubes (β-galactosidase activity relative to DMSO) ([2]; 10 uM) | CMV-LACZ in Myotubes (β-galactosidase activity relative to DMSO) ([2]; 20 uM) | CMV-LACZ in Myotubes (β-galactosidase activity relative to DMSO) ([2]; 40 uM) | Burkin Assay in Myotubes (signal relative to DMSO) ([3]; 0.5 uM) | Burkin Assay in Myotubes (signal relative to DMSO) ([3]; 1 uM) | Burkin Assay in Myotubes (signal relative to DMSO) ([3]; 5 uM) | Burkin Assay in Myotubes (signal relative to DMSO) ([3]; 10 uM) | Burkin Assay in Myotubes (signal relative to DMSO) ([3]; 20 uM) | Burkin Assay in Myotubes (signal relative to DMSO) ([3]; 40 uM) | CMV-LACZ in Myotubes, signal relative to DMSO [2, 4] | CMV-LACZ in Myotubes, signal relative to DMSO [2, 5] | CMV-LACZ in Myotubes, signal relative to DMSO [2, 6] | CMV-LACZ in Myotubes, signal relative to DMSO [2, 7] | other results
1 | COc1ccccc1C(=O)Nc1nc2cc3c(cc2s1)OCO3 [MLS000419555-01] | – | – | – | – | – | – | – | – | – | – | – | – | – | – | – | – | – | – | – | – | fold induction at 0.5 µM ([1]; Mus musculus, Myoblast, 48 h, 0.5 uM, read-out: Burkin Assay in Myoblasts, signal relative to DMSO): 1.19; fold induction at 1 µM ([1]; Mus musculus, Myoblast, 48 h, 1 uM, read-out: Burkin Assay in Myoblasts, signal relative to DMSO): 1.2; fold induction at 5 µM ([1]; Mus musculus, Myoblast, 48 h, 5 uM, read-out: Burkin Assay in Myoblasts, signal relative to DMSO): 1.07; fold induction at 10 µM ([1]; Mus musculus, Myoblast, 48 h, 10 uM, read-out: Burkin Assay in Myoblasts, signal relative to DMSO): 1.03; fold induction at 20 µM ([1]; Mus musculus, Myoblast, 48 h, 20 uM, read-out: Burkin Assay in Myoblasts, signal relative to DMSO): 0.948; fold induction at 40 µM ([1]; Mus musculus, Myoblast, 48 h, 40 uM, read-out: Burkin Assay in Myoblasts, signal relative to DMSO): 0.797; fold induction at 5 µM ([2]; Mus musculus, C2C12, read-out: CMV-LACZ in Myotubes, signal relative to DMSO, 5 uM, C2C12 CMV-LacZ myotubes, fold relative to DMSO): 1.22; fold induction at 10 µM ([2]; Mus musculus, C2C12, read-out: CMV-LACZ in Myotubes, signal relative to DMSO, 10 uM, C2C12 CMV-LacZ myotubes, fold relative to DMSO): 1.21; fold induction at 20 µM ([2]; Mus musculus, C2C12, read-out: CMV-LACZ in Myotubes, signal relative to DMSO, 20 uM, C2C12 CMV-LacZ myotubes, fold relative to DMSO): 1.22; fold induction at 40 µM ([2]; Mus musculus, C2C12, read-out: CMV-LACZ in Myotubes, signal relative to DMSO, 40 uM, C2C12 CMV-LacZ myotubes, fold relative to DMSO): 1.22; fold induction at 0.5 µM ([3]; Mus musculus, Myotube, 0.5 uM, read-out: Burkin Assay in Myotubes, α7 integrin LacZ reporter signal relative to DMSO): 1.05; fold induction at 1 µM ([3]; Mus musculus, Myotube, 1 uM, read-out: Burkin Assay in Myotubes, α7 integrin LacZ reporter signal relative to DMSO): 1.02; fold induction at 5 µM ([3]; Mus musculus, Myotube, 5 uM, read-out: Burkin Assay in Myotubes, α7 integrin LacZ reporter signal relative to DMSO): 1.15; fold induction at 10 µM ([3]; Mus musculus, Myotube, 10 uM, read-out: Burkin Assay in Myotubes, α7 integrin LacZ reporter signal relative to DMSO): 1.09; fold induction at 20 µM ([3]; Mus musculus, Myotube, 20 uM, read-out: Burkin Assay in Myotubes, α7 integrin LacZ reporter signal relative to DMSO): 1.01; fold induction at 40 µM ([3]; Mus musculus, Myotube, 40 uM, read-out: Burkin Assay in Myotubes, α7 integrin LacZ reporter signal relative to DMSO): 1.02
2 | CC(=O)c1cccc(NC(=O)C2CCCN(S(=O)(=O)c3cccc4nonc34)C2)c1 (centres unmarked) [MLS000937079-01] | 1.163 | 0.8958 | 1.053 | 1.147 | 1.028 | 0.9956 | 1.087 | 0.9923 | 0.9641 | 0.9682 | 1.0515 | 0.6372 | 0.9756 | 0.8882 | 1.142 | 0.9197 | – | – | – | – | –
3 | COc1ccc(S(=O)(=O)N2CCN(C(=O)C3CCC3)CC2)cc1 [MLS001139515-01] | 0.9225 | 0.9852 | 1.053 | 1.16 | 0.8336 | 0.8527 | 0.9404 | 0.7604 | 0.9237 | 0.9601 | 0.9636 | 1.009 | 1.013 | 0.9488 | 1.124 | 1.013 | – | – | – | – | –
4 | CC(NC(=O)c1cn(C)c2ccc(S(=O)(=O)N3CCCC3)cc2c1=O)c1ccccc1 (centres unmarked) [MLS000913052-01] | 1.116 | 1.038 | 1.076 | 1.067 | 1.113 | 1.202 | – | – | – | – | 1.073 | 0.9014 | 1.055 | 1.013 | 0.9725 | 0.8287 | 1.115 | 1.287 | 0.9154 | 0.92 | –
5 | COCCN(CC(=O)Nc1cccc(C)c1C)C(=O)C1CCN(S(=O)(=O)c2ccccc2)CC1 [MLS002156278-01] | 0.8597 | 0.9642 | 1.01 | 0.9653 | 0.8604 | 0.8246 | 0.8694 | 1.096 | 0.9667 | 1.031 | 1.005 | 0.9637 | 0.6908 | 0.9924 | 0.9719 | 1.025 | – | – | – | – | –
6 | Cc1ccc(S(=O)(=O)N2CN(CC3CCCO3)c3nc4ccccc4nc32)c(C)c1 (centres unmarked) [MLS001139288-01] | – | – | – | – | – | – | – | – | – | – | – | – | – | – | – | – | 1.247 | 1.047 | 1.096 | 1.0825 | Burkin Assay in Myoblasts, signal relative to DMSO ([1]; 0.5 uM): 0.9823; Burkin Assay in Myoblasts, signal relative to DMSO ([1]; 1 uM): 0.9709; Burkin Assay in Myoblasts, signal relative to DMSO ([1]; 5 uM): 0.8634; Burkin Assay in Myoblasts, signal relative to DMSO ([1]; 10 uM): 0.9225; Burkin Assay in Myoblasts, signal relative to DMSO ([1]; 20 uM): 1.085; Burkin Assay in Myoblasts, signal relative to DMSO ([1]; 40 uM): 0.9336; Burkin Assay in Myotubes, α7 integrin LacZ reporter signal relative to DMSO ([3]; 0.5 uM): 0.9234; Burkin Assay in Myotubes, α7 integrin LacZ reporter signal relative to DMSO ([3]; 1 uM): 0.8525; Burkin Assay in Myotubes, α7 integrin LacZ reporter signal relative to DMSO ([3]; 5 uM): 0.9829; Burkin Assay in Myotubes, α7 integrin LacZ reporter signal relative to DMSO ([3]; 10 uM): 0.9777; Burkin Assay in Myotubes, α7 integrin LacZ reporter signal relative to DMSO ([3]; 20 uM): 1.313; Burkin Assay in Myotubes, α7 integrin LacZ reporter signal relative to DMSO ([3]; 40 uM): 0.7808
7 | O=C(O)c1cc(N=Cc2c(O)c3ccccc3oc2=O)ccc1O [MLS001216260-01] | – | – | – | – | – | – | – | – | – | – | – | – | – | – | – | – | 0.8516 | 1.031 | 1.09 | 0.8367 | Burkin Assay in Myoblasts, signal relative to DMSO ([1]; 0.5 uM): 1.0145; Burkin Assay in Myoblasts, signal relative to DMSO ([1]; 1 uM): 0.984; Burkin Assay in Myoblasts, signal relative to DMSO ([1]; 5 uM): 0.8531; Burkin Assay in Myoblasts, signal relative to DMSO ([1]; 10 uM): 0.8798; Burkin Assay in Myoblasts, signal relative to DMSO ([1]; 20 uM): 0.8781; Burkin Assay in Myoblasts, signal relative to DMSO ([1]; 40 uM): 0.8933; Burkin Assay in Myotubes, α7 integrin LacZ reporter signal relative to DMSO ([3]; 0.5 uM): 1.005; Burkin Assay in Myotubes, α7 integrin LacZ reporter signal relative to DMSO ([3]; 1 uM): 0.9893; Burkin Assay in Myotubes, α7 integrin LacZ reporter signal relative to DMSO ([3]; 5 uM): 1.16; Burkin Assay in Myotubes, α7 integrin LacZ reporter signal relative to DMSO ([3]; 10 uM): 1.06; Burkin Assay in Myotubes, α7 integrin LacZ reporter signal relative to DMSO ([3]; 20 uM): 0.9144; Burkin Assay in Myotubes, α7 integrin LacZ reporter signal relative to DMSO ([3]; 40 uM): 0.9348
8 | Cc1ccc(NC(=O)CC2COc3ccccc3O2)cc1 (centres unmarked) [MLS000534926-01] | 1.522 | 0.9473 | 0.8586 | 0.8832 | 0.5996 | 0.4222 | 0.9724 | 0.969 | 0.9547 | 0.844 | 1.026 | 0.9445 | 1.006 | 0.9622 | 1.338 | 0.8565 | – | – | – | – | –
